Values after ≈ are worked out from the molar mass of the structure shown. Like-named read-outs stand apart in the source and are kept apart here.
What was measured:
B. subtilis = assay: Antimicrobial MIC, agar cup diffusion; format: cell-based; conditions: Bacillus subtilis; B. subtilis; read-out: MIC (minimum inhibitory concentration)
E. coli = assay: Antimicrobial MIC, agar cup diffusion; format: cell-based; conditions: Escherichia coli, read-out: MIC (minimum inhibitory concentration)
S. typhi = assay: Antimicrobial MIC, agar cup diffusion; format: cell-based; conditions: Salmonella enterica, read-out: MIC (minimum inhibitory concentration)
K. pneumoniae = assay: Antimicrobial MIC, agar cup diffusion; format: cell-based; conditions: Klebsiella pneumoniae, read-out: MIC (minimum inhibitory concentration)
C. albicans = assay: Antimicrobial MIC, agar cup diffusion; format: cell-based; conditions: Candida albicans, read-out: MIC (minimum inhibitory concentration)
A. niger = assay: Antimicrobial MIC, agar cup diffusion; format: cell-based; conditions: Aspergillus niger, read-out: MIC (minimum inhibitory concentration)
P. falciparum strain W2 = assay: In vitro antimalarial assay; format: cell-based; conditions: for MIC: Plasmodium falciparum, W2, P. falciparum
[1] = system: Plasmodium berghei infection in mice; assay: In vivo antimalaria test; conditions: P. berghei infected mice; for inhibition in vivo at 100 mg/kg / inhibition in vivo at 200 mg/kg: Plasmodium berghei, oral
Protocol: Experimental Design and Treatment of Mice. Methods of Peter et al.[30] and Kalra et al.[31] for antiplasmodial assay against Plasmodium berghei infection in mice with some modifications were employed. About eighty infected mice were randomly divided into five groups, each having […] mice. The inoculum was prepared from a donor mouse with rising parasitemia of 60.42%. After 7 days of infection, animals begin to receive treatment (100 and 200 mg/kg b wt.) of the synthesized compounds (7a–7n) for 12 days with constant check of the percentage of parasitemia after a 4-day interval. Artemisinin (100 and 200 mg/kg body weight.) was given to the other mice in group three as positive control, group four was not treated and group five was not infected. All the compounds and the drugs were given orally by using a standard intragastric tube. For all parasitemia determination, blood samples were collected from tail snip of each mouse and thin smears prepared and stained with 10% Giemsa solution. The uniform fields of each stained slide (for each mouse) were examined under microscope with an oil immersion objective of 100X magnification power and average percent of parasitemia was determined.
To determine the in vivo activity, the compounds were tested against P. berghei NK(65 Strain) infection mice., the animals were obtained from Nigeria institute for Trypanosoma and onchocercarioses Research (NTIR) Vom, Plateau State Nigeria. The permission and approval for the use of animals in this experiment were granted by the Animal Ethics Committee, Federal College of Vetrenary Medical Laboratory, Vom, Plateau State. Method of Peter et al.[30], for antiplasmodial assay against P. berghei in mice with some modification were employed. Artemisimin was used as treated control of the experiments. The percentage inhibition of parasite multiplication was calculated comparing the treated group with untreated group by means of the following formula[39] [(A − B)/A] × 100; where A = parasitaemia in the untreated group and B = parasitemia in the test group. […] Most of the compounds were active against P. berghei after 7 days post-infection by reducing the parasiteamia by at least 40% when in a dose of 100 mg/kg (Table 5). The inhibition of parasitaemia increased on 12th day post infection for almost all the compounds. […] However in consideration of the compounds ability to inhibit parasitaemia to the control drug. […] These compounds should be considered for further studies because of its promising activities.

Liver function tests = format: in vivo; design: Glucose: unit not given here; conditions: mice, 10 mg/kg
Excerpt: (§1) Twenty-four hours before the injecting the compounds, the blood sample of five mice was taken and it was also taken after the last day of treatment, the animals were sacrificed by cervical dislocation and the blood samples were collected by heart puncture. The blood samples for haematological parameters (red blood cell (RBC) count, white blood cell (WBC) count, packed cell volume (PCV), and hemoglobin (HGB)) were collected into EDTA bottles and analyzed using an automated machine (Automated CBC Analyzer: Sysmex KX-21). The liver function tests carried out with the blood of the rats fed with the sulfonamide derivatives were aspartate aminotransperase (AST), alanine transaminase (ALT) and alkaline phosphatase (ALP). Standard laboratory procedure according to Reitman and Franke[32] was used for the determination of parameters.

[2] = Renal or kidney function test; format: in vivo; conditions: mice, 10 mg/kg
Excerpt: as §1, with “KX-21). Kidney” for “KX-21). The liver”, “derivatives were, creatinine” for “derivatives were aspartate aminotransperase (AST), alanine transaminase (ALT)”, “and albunim. The method reported by Kaplan” for “and alkaline phosphatase (ALP). Standard laboratory procedure according to Reitman”, “and Tengv[33]” for “and Franke[32]”, “used in” for “used for”, “of creatinine.” for “of parameters.”

Haematological analysis = format: in vivo, mice
Excerpt: Twenty-four hours before the injecting the compounds, the blood sample of five mice was taken and it was also taken after the last day of treatment, the animals were sacrificed by cervical dislocation and the blood samples were collected by heart puncture. The blood samples for haematological parameters (red blood cell (RBC) count, white blood cell (WBC) count, packed cell volume (PCV), and hemoglobin (HGB)) were collected into EDTA bottles and analyzed using an automated machine (Automated CBC Analyzer: Sysmex KX-21).
The blood samples for haematological parameters (red blood cell (RBC) count, white blood cell (WBC) count, packed cell volume (PCV), and haemoglobin (HGB)) were collected into EDTA bottles and analyzed using an automated machine (Automated CBC Analyzer: Sysmex KX-21) (Table 8). From the analysis, even though there is a decrease in the value of RBC, PCV and HB, it is observed that there is no significant changes in the parameters that were analyzed for the control and the test compounds.

Compound: Cc1ccc(S(=O)(=O)NC(C)C(=O)NCC(=O)Nc2cccc(Cl)c2)cc1 (stereo not shown) [Compound 7h, N-(2-((3-chlorophenyl)amino)-2-oxoethyl)-2–(4-methylphenylsulfonamido)propanamide]
- MIC (B. subtilis): 214 µg/mL (≈ 522 µM)
- MIC (E. coli): 239 µg/mL (≈ 583 µM)
- MIC (S. typhi): 1290 µg/mL (≈ 3140 µM)
- MIC (K. pneumoniae): 5250 µg/mL (≈ 12800 µM)
- MIC (C. albicans): 34 µg/mL (≈ 82.9 µM)
- MIC (A. niger): 31.6 µg/mL (≈ 77.1 µM)
- MIC (P. falciparum strain W2): 50 µM (≈ 20.5 µg/mL)
- MIC (P. falciparum strain W2; 48 h, >99% of parasites inhibited from developing to schizonts): 0.03 µM (≈ 0.0123 µg/mL)
- in vitro antimalarial activity relative to other compounds and standard drugs (P. falciparum strain W2; in words): best activity
- ability to inhibit parasitaemia compared to the control drug ([1]; in words): almost the same or better activity compared to the artemisinin
- inhibition in vivo at 100 mg/kg ([1]; 168 h, read-out: % inhibition 7 days post-treatment (100 mg/kg), day 7): 61.4%
- inhibition in vivo at 200 mg/kg ([1]; 168 h, read-out: % inhibition 7 days post-treatment (200 mg/kg), day 7): 49.9%
- inhibition in vivo at 100 mg/kg ([1]; 288 h, read-out: % inhibition 12 days post-treatment (100 mg/kg), day 12): 57.8%
- inhibition in vivo at 200 mg/kg ([1]; 288 h, read-out: % inhibition 12 days post-treatment (200 mg/kg), day 12): 55.2%
- ALT (Liver function tests; After): 24.5 µ/L
- AST (Liver function tests; After): 69.5 µ/L
- Bilirubin (Liver function tests; After): 0.3 mg/dL
- Glucose (Liver function tests; After): 5.5
- T.P. (Liver function tests; After): 5.5 g/dL
- ALT (Liver function tests; Before): 25.4 µ/L
- AST (Liver function tests; Before): 65.0 µ/L
- Bilirubin (Liver function tests; Before): 0.4 mg/dL
- Glucose (Liver function tests; Before): 5.9
- T.P. (Liver function tests; Before): 6.0 g/dL
- Albumin ([2]; After): 3.9 g/dL
- Creatinine ([2]; After): 0.3 mg/dL
- Albumin ([2]; Before): 3.9 g/dL
- Creatinine ([2]; Before): 0.3 mg/dL
- HB (Haematological analysis; After treatment): 10.0 g/dL
- PCV (Haematological analysis; After treatment): 34%
- RBC (Haematological analysis; After treatment): 5.9 × 10^6 mm^3
- WBC (Haematological analysis; After treatment): 9.3 × 10^3 mm^3
- HB (Haematological analysis; Before treatment): 13.4 g/dL
- PCV (Haematological analysis; Before treatment): 39%
- RBC (Haematological analysis; Before treatment): 7.3 × 10^6 mm^3
- WBC (Haematological analysis; Before treatment): 9.4 × 10^3 mm^3
- melting point: 120 to 122 °C
